The source of these data is ChEMBL document CHEMBL1128068, “Inhibitors of human collagenase: dipeptide mimetics with lactam and azalactam moieties at the position” (Bioorg Med Chem Lett, 1995).

The target of the assay is T1, Interstitial collagenase (Homo sapiens, UniProt P03956).
T1 sequence (P03956 whole entry): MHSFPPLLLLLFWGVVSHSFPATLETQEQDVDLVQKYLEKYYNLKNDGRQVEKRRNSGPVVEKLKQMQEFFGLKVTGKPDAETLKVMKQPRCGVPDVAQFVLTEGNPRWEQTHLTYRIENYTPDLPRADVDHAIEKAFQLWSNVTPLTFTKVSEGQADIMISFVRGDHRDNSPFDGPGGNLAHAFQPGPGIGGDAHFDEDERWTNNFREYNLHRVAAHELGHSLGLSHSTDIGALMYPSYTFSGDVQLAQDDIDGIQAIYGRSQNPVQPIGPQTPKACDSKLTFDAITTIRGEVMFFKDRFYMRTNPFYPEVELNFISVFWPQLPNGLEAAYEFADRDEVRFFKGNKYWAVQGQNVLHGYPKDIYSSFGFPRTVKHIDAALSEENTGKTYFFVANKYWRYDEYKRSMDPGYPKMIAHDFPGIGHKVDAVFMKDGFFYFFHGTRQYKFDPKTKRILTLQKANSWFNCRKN
Nature of the assay: Inhibition of semi-purified human lung fibroblast collagenase.
Consider `CC[C@H](N[C@@H](CC(C)C)C(=O)NC1CCCCNCCCCCNC1=O)P(=O)(O)O` (stereo partly specified), for which inhibition was half-maximal at 460 nM (IC50).
To `CC[C@H](N[C@@H](CC(C)C)C(=O)NC1CCCNCCCCCCNC1=O)P(=O)(O)O` (stereo partly specified) belongs 227 nM; to `CC[C@H](N[C@@H](CC(C)C)C(=O)NC1CCCCNCCCCCCNC1=O)P(=O)(O)O` (stereo partly specified), 307 nM; to `CC[C@H](N[C@@H](CC(C)C)C(=O)NC1CCCCNCCCNC1=O)P(=O)(O)O` (stereo partly specified), 2230 nM.
To `CC[C@H](N[C@@H](CC(C)C)C(=O)NC1CCCCN(C)CCCCCNC1=O)P(=O)(O)O` (stereo partly specified) belongs 510 nM; to `CC(C)CC(CC(=O)NO)C(=O)NC1CCCCCCCCCCNC1=O` (stereo unspecified), 26 nM; to `CC(C)C[C@@H](C(=O)NC1CCCCCCCCCCNC1=O)[C@@H](S)CC(=O)OC(C)C` (stereo partly specified), 51 nM.
To `CC(C)CC(C(=O)NC1CCCCNCCCCCNC1=O)[C@@H](S)CC(=O)OC(C)C` (stereo partly specified) belongs 44 nM; to `CCC(N[C@@H](CC(C)C)C(=O)NC1CCCCCCCCCCNC1=O)P(=O)(O)O` (stereo partly specified), 183 nM; to `CC(C)CC(CC(=O)NO)C(=O)N[C@H]1CCCCNCCCCCNC1=O` (stereo in doubt; 17a), 12 nM.
For the compound `CC(C)CC(CC(=O)NO)C(=O)N[C@H]1CCCCNCCCCCNC1=O` (stereo in doubt; 17b), the IC50 (usually the concentration needed to halve the response being measured) was 82 nM.
